Test results from article PMC4768138, “Biliverdin targets enolase and eukaryotic initiation factor 2 (eIF2α) to reduce the growth of intraerythrocytic development of the malaria parasite Plasmodium falciparum” (Scientific Reports, 2016).

Legend:
[1] = biological target: T1, P. falciparum enolase (Pf enolase) (Plasmodium falciparum, UniProt Q8IJN7); experiment: ITC with purified enzyme (n = […], ΔG −[…] Kcal/mol, Kd not given); IC50 from enzyme inhibition assay; assay type: biochemical
T1 construct: gene ENO; recombinant full-length Plasmodium enolase, expressed in E. coli, His-tag-thioredoxin removed by TEV protease

[2] = biological target: the molecule itself; experiment: SEC; Superdex 200 16/60, 20 mM Tris-HCl pH 8.0, 200 mM NaCl; single symmetric peak of the purified recombinant protein

Row | Molecule | IC50 [1] | stoichiometry N [2]
1 | C=CC1=C(C)/C(=C/C2=NC(=C\c3[nH]c(/C=C4\NC(=O)C(C)=C4C=C)c(C)c3CCC(=O)O)/C(CCC(=O)O)=C2C)NC1=O [BV, biliverdin] | 27 ± 4 µM | –
2 | Plasmodium falciparum enolase (enzyme, UniProt Q8IJN7 1-446, looked up, Enolase of Plasmodium falciparum, expressed from the P. falciparum enolase-pETTrx-1a plasmid; the abstract calls it recombinant full-length Plasmodium enolase; The His-tag-thioredoxin was removed by TEV protease; also called Pf enolase; P. falciparum enolase; source: E. coli Rosetta (DE3), purified (HisTrap, TEV digestion, second HisTrap, Superdex 200)) MAHVITRINAREILDSRGNPTVEVDLETNLGIFRAAVPSGASTGIYEALELRDNDKSRYLGKGVQKAIKNINEIIAPKLIGMNCTEQKKIDNLMVEELDGSKNEWGWSKSKLGANAILAISMAVCRAGAAANKVSLYKYLAQLAGKKSDQMVLPVPCLNVINGGSHAGNKLSFQEFMIVPVGAPSFKEALRYGAEVYHTLKSEIKKKYGIDATNVGDEGGFAPNILNANEALDLLVTAIKSAGYEGKVKIAMDVAASEFYNSENKTYDLDFKTPNNDKSLVKTGAQLVDLYIDLVKKYPIVSIEDPFDQDDWENYAKLTAAIGKDVQIVGDDLLVTNPTRITKALEKNACNALLLKVNQIGSITEAIEACLLSQKNNWGVMVSHRSGETEDVFIADLVVALRTGQIKTGAPCRSERNAKYNQLLRIEESLGNNAVFAGEKFRLQLN | – | 2
